Source: US12065443B2, “Compounds and pharmaceutical compositions thereof for the treatment of diseases” (priority 2017, dated 2024)

Columns and labels:
SIK3 = target: T1, SIK3 (Homo sapiens, UniProt Q9Y2K2); test: biochemical
T1 construct: purchased SignalChem S12-11G-100
Method in brief: (§1)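 AMARA peptide phosphorylation by SIK1–3 is quantified through ^33P uptake from a labeled/unlabeled ATP blend. Staurosporine at 10 μM final defines full inhibition, 1% DMSO the uninhibited signal. Quench uses phosphoric acid; counting follows filter capture.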

SIK1 = target: T2, SIK1 (Homo sapiens, UniProt P57059); test: biochemical; conditions: 33P radioactive SIK kinase assay, AMARA peptide, 10 μM ATP; read-out: SIK1 IC50
T2 construct: purchased Carna Biosciences 02-131
Method in brief: as §1

SIK2 = target: T3, SIK2 (Homo sapiens, UniProt Q9H0K1); test: biochemical; conditions: 33P radioactive SIK kinase assay, AMARA peptide, 10 μM ATP
T3 construct: purchased ThermoFisher Scientific PV4792
Method in brief: as §1

[1] = test system: LPS-induced TNFα secretion in monocyte-derived macrophages (MdM); test: MdM assay: LPS-triggered TNFα (ELISA); assay type: cell-based, human; conditions: Homo sapiens, Macrophage, LPS-triggered TNFα inhibition
Method: This assay evaluates illustrative compounds of the invention for their inhibition of LPS-induced TNFα and LPS triggered IL-10 secretion in monocyte-derived macrophages.
PBMCs are isolated from human blood samples (buffycoats). The buffy coat is aseptically transferred into a 50 mL Falcon tube, and diluted 1/2 in PBS. Falcon tubes are filled with 20 mL Lymphoprep™, on top of which 25 mL of the buffy coat is carefully added, tubes are centrifuged for 35 min at 400 g in temperature controlled centrifuge, without brake, at 25° C. PBMCs are aspirated from the white interface layer between sample and Lymphoprep™. PBMCs are washed five times in PBS.
PBMCs are centrifuged at 300×g for 10 min and resuspended at a density of 1.0E07 cells/80 μL Miltenyi buffer (PBS, pH 7.4, 1% FBS, 2 mM EDTA).
Starting from this point of the protocol all steps are performed on ice. 20 μL of CD14+ micro-beads are added per 1.0E07 cells, the tube is mixed and incubated for 15 min in the fridge at 4° C. Cell suspension volume is adjusted to total volume of 100 mL using Miltenyi buffer, mixed gently and subsequently centrifuged for 10 min at 300× g. Supernantant is discarded and cell pellet is resuspended in 12 mL of Miltenyi buffer.
Four LS columns are placed in the MACS Separator (magnet) from Miltenyi Biotec, and are prewet by rinsing with 3 mL of MACS buffer per column. Three mL of cell suspension is added onto the column (max 1*10^8 of labelled cells/column), and columns are subsequently washed 3 times with 3 mL of Miltenyi buffer.
The columns are removed from the magnets, and 5 mL of Miltenyi buffer are added to the column to flush out the CD14+ fraction by pushing the plunger into the column. The flushed fractions are collected in a fresh 50 mL Falcon and volume is adjusted to 30 mL using Miltenyi buffer, cells are centrifuged for 10 min at 300× g. The obtained cell pellet is resuspended in 10 mL RPMI w/o FBS, and cell density is determined using a hematologic analyser (Sysmex XS-500i).
On day 10, MdMs are triggered and compound is added.
A compound dilution plate is made in 100% DMSO by 3-fold dilution of 10 mM stock solution. An intermediate dilution plate (10× final concentration) is made by diluting the compound dilution plate 50-fold in RPMI medium.
Medium is carefully removed from cell plates using multichannel pipette, and replaced by 80 μL fresh medium. 10 μL of the 10× final concentration compound is added to the cells and incubated for 1 hour at 37° C. before addition of trigger. No trigger conditions/trigger conditions are spiked with equal final DMSO concentrations of 0.2% DMSO. 10 μL of 10×LPS (final conc. 200 ng/mL) solution are added to all wells except for the ‘no trigger wells’ where 10 μL medium is added. Supernatant is collected after 2 h (IL-10 determination) and after 20 h (TNFα determination) of LPS triggering.
The plate is then washed once with PBST (PBS+0.05% Tween20) and once with PBS followed by the addition of 100 μL of blocking buffer (1% Bovine Serum Albumin (BSA)-5% Sucrose) and plates are sealed and incubated for at least 4 h at RT. After washing the plate once with PBST and once with PBS, 40 μL of standard or sample are added (TNFα standard curve is prepared using a 1/2 serial dilution starting from 16000 pg/mL; dilutions are made in dilution buffer (PBS+1% BSA)). Plates are washed twice with PBST, and once with PBS, after which 35 μL of the detection antibody is added (final concentration 0.25 μg/mL diluted in dilution buffer) and plates are incubated for at least 2 h at RT. Plates are washed twice with PBST, and once with PBS, where after 35 μL of Strep-HRP conjugate (0.5 μg/mL final concentration diluted in dilution buffer) is added. Plates are incubated in the dark, at RT for at least 45 min but no longer than 1 hour. Plates are washed twice with PBST, and once with PBS.

T1 sequence (Q9Y2K2 whole entry): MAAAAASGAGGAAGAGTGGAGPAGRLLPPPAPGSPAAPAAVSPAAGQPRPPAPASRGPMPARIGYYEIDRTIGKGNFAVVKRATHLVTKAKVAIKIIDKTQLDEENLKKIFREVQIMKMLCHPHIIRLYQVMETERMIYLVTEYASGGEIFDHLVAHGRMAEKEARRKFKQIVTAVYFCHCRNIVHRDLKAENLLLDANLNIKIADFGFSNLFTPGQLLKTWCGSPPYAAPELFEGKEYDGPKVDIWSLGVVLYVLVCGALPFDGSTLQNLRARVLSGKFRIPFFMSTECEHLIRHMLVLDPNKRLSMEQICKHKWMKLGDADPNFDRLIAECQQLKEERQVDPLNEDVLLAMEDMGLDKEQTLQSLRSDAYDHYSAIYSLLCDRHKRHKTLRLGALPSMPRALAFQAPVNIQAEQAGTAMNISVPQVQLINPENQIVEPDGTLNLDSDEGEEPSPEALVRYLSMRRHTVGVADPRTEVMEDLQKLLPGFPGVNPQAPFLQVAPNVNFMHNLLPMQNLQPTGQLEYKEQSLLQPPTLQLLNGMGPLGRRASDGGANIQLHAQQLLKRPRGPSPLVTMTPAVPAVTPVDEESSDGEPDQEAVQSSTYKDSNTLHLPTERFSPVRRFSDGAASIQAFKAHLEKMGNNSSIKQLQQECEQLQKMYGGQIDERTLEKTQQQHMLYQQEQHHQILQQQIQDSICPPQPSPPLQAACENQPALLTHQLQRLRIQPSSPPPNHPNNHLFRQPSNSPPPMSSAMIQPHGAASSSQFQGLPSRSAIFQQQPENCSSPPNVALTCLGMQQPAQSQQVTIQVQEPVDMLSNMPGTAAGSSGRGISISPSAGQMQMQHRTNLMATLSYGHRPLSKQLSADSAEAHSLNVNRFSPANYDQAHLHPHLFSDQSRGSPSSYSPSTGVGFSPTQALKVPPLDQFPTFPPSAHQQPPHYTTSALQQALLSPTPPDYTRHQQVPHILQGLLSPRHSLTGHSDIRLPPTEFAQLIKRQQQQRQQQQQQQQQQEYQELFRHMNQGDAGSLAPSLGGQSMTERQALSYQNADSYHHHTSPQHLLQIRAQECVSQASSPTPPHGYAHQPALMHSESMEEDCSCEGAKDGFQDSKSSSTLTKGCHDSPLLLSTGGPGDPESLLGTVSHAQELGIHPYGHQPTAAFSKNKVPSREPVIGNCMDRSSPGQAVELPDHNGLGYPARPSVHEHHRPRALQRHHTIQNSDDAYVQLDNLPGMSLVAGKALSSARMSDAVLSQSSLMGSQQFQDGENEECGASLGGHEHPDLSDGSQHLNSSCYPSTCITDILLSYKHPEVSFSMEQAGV
T3 sequence (Q9H0K1 whole entry): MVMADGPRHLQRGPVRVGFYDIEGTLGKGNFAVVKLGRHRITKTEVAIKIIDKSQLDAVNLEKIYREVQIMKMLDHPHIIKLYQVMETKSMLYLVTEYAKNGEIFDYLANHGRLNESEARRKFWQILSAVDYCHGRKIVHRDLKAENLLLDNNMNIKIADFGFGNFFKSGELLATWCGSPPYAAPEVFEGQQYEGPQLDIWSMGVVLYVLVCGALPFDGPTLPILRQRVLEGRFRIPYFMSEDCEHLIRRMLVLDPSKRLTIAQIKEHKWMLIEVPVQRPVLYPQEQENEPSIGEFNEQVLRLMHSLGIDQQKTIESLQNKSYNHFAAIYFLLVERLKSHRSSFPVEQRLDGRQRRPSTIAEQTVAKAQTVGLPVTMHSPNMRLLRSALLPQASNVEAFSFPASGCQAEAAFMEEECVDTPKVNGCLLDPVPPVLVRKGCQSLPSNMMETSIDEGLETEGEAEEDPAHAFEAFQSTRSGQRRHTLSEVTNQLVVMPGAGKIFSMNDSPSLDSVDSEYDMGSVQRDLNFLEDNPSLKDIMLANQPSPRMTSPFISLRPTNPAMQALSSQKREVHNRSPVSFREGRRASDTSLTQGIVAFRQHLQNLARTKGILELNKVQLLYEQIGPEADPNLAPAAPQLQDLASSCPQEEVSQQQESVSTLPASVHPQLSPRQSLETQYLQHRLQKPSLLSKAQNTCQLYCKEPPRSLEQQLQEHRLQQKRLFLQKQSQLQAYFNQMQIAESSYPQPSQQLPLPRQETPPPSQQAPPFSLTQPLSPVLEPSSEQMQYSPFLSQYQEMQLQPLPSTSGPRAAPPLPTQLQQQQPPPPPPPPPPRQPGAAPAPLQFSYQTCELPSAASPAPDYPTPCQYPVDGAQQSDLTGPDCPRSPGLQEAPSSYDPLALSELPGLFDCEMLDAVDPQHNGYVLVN
T2 sequence (P57059 whole entry): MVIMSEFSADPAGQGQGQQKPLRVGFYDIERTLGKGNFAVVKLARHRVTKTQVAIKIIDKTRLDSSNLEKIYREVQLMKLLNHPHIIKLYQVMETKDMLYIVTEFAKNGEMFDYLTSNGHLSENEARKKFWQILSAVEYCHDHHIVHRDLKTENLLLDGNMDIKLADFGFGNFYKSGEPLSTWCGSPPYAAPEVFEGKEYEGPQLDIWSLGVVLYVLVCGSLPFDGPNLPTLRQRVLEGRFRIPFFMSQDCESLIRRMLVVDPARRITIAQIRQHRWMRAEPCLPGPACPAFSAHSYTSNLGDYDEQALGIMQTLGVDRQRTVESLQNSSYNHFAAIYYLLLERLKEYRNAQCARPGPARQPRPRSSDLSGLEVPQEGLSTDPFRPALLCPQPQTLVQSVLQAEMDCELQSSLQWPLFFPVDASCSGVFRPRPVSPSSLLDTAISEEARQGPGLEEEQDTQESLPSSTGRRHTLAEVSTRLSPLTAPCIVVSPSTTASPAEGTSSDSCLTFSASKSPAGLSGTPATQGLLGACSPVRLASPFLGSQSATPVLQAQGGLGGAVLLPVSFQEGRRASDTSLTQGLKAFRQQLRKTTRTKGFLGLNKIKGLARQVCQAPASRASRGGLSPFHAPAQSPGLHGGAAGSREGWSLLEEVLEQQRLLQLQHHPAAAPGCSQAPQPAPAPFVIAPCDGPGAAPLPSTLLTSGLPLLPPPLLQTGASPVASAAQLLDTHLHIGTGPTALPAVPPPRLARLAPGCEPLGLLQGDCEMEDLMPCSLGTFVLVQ

IC50 (SIK3)	IC50 (SIK1)	IC50 (SIK2)	EC50 [1]	Compound
10 to 100 nM	10 to 100 nM	10 to 100 nM	100 to 1000 nM	COc1cc(-n2cnc3cc(-c4ccc(N5CCOCC5)nc4)ccc32)cc(OC)c1C(=O)NCC(F)(F)F [compound 32, 2,6-dimethoxy-4-[5-(6-morpholino-3-pyridyl)benzimidazol-1-yl]-N-(2,2,2-trifluoroethyl)benzamide]
10 to 100 nM	10 to 100 nM	0.01 to 10 nM	100 to 1000 nM	COc1cc(-n2cnc3cc(-c4ccc(N5CCCC5)nc4)ccc32)cc(OC)c1C(=O)NCC(F)(F)F [compound 34, 2,6-dimethoxy-4-[5-(6-pyrrolidin-1-yl-3-pyridyl)benzimidazol-1-yl]-N-(2,2,2-trifluoroethyl)benzamide]
0.01 to 10 nM	0.01 to 10 nM	0.01 to 10 nM	100 to 1000 nM	COc1cc(-n2cnc3cc(-c4cnn(C5CCNCC5)c4)ccc32)cc(OC)c1C(=O)NCC(F)(F)F [compound 42, 2,6-dimethoxy-4-[5-[1-(4-piperidyl)pyrazol-4-yl]benzimidazol-1-yl]-N-(2,2,2-trifluoroethyl)benzamide]
10 to 100 nM	10 to 100 nM	10 to 100 nM	100 to 1000 nM	CCn1cc(-c2ccc3c(c2)ncn3-c2cc(OC)c(C(=O)NCCC(F)(F)F)c(OC)c2)cn1 [compound 44, 4-[5-(1-ethylpyrazol-4-yl)benzimidazol-1-yl]-2,6-dimethoxy-N-(3,3,3-trifluoropropyl)benzamide]
10 to 100 nM	10 to 100 nM	10 to 100 nM	100 to 1000 nM	COc1cc(-n2cnc3cc(-c4cnn(C)c4)ccc32)cc(OC)c1C(=O)N[C@H](C)C(F)(F)F [compound 58, 2,6-dimethoxy-4-[5-(1-methylpyrazol-4-yl)benzimidazol-1-yl]-N-[(1R)-2,2,2-trifluoro-1-methyl-ethyl]benzamide]
10 to 100 nM	10 to 100 nM	10 to 100 nM	100 to 1000 nM	COc1cc(-n2cnc3cc(-c4cnn(C)c4)ccc32)cc(OC)c1C(=O)NC1CC(F)(F)C1 [compound 125, N-(3,3-difluorocyclobutyl)-2,6-dimethoxy-4-[5-(1-methylpyrazol-4-yl)benzimidazol-1-yl]benzamide]
0.01 to 10 nM	10 to 100 nM	0.01 to 10 nM	100 to 1000 nM	COc1cc(-c2cnc3cc(-c4cnn(C)c4)ccn23)cc(OC)c1C(=O)NCC(C)C [compound 129, N-isobutyl-2,6-dimethoxy-4-[7-(1-methylpvrazol-4-yl)imidazo[1,2-a]pyridin-3-yl]benzamide]
10 to 100 nM	10 to 100 nM	10 to 100 nM	1000 to 5000 nM	CCNC(=O)c1c(OC)cc(-c2cnc3cc(-c4ccnnc4)ccn23)cc1OC(F)F [compound 145, 2-(difluoromethoxy)-N-ethyl-6-methoxy-4-(7-pyridazin-4-ylimidazo[1,2-a]pyridin-3-yl)benzamide]
10 to 100 nM	100 to 500 nM	10 to 100 nM	100 to 1000 nM	CCNC(=O)c1c(OC)cc(-c2cnc3cc(-c4ccc(C#N)nc4)ccn23)cc1OC(F)F [compound 146, 4-[7-(6-cyano-3-pyridyl)imidazo[1,2-a]pyridin-3-yl]-2-(difluoromethoxy)-N-ethyl-6-methoxy-benzamide]
0.01 to 10 nM	0.01 to 10 nM	0.01 to 10 nM	0.1 to 100 nM	CCNC(=O)c1c(OC)cc(-c2cnc3cc(-c4cnn(C5CCN(C(=O)OC(C)(C)C)CC5)c4)ccn23)cc1OC(F)F [compound 147, tert-butyl 4-[4-[3-[3-(difluoromethoxy)-4-(ethylcarbamoyl)-5-methoxy-phenyl]imidazo[1,2-a]pyridin-7-yl]pyrazol-1-yl]piperidine-1-carboxylate]
0.01 to 10 nM	0.01 to 10 nM	0.01 to 10 nM	100 to 1000 nM	CCNC(=O)c1c(OC)cc(-c2cnc3cc(-c4cnn(C5CCNCC5)c4)ccn23)cc1OC(F)F [compound 149, 2-(difluoromethoxy)-N-ethyl-6-methoxy-4-[7-[1-(4-piperidyl)pyrazol-4-yl]imidazo[1,2-a]pyridin-3-yl]benzamide]
0.01 to 10 nM	0.01 to 10 nM	0.01 to 10 nM	0.1 to 100 nM	CCNC(=O)c1c(OC)cc(-c2cnc3cc(-c4cnn(C(F)F)c4)ccn23)cc1OC(F)F [compound 151, 2-(difluoromethoxy)-4-[7-[1-(difluoromethyl)pyrazol-4-yl]imidazo[1,2-a]pyridin-3-yl]-N-ethyl-6-methoxy-benzamide]
10 to 100 nM	10 to 100 nM	10 to 100 nM	1000 to 5000 nM	COc1cc(-n2cnc3cc(-c4cnc(C)[nH]4)ccc32)cc(OC)c1C(=O)NCC(F)(F)F [compound 152, 2,6-dimethoxy-4-[5-(2-methyl-1H-imidazol-5-yl)benzimidazol-1-yl]-N(2,2,2-trifluoroethyl)benzamide]
10 to 100 nM	10 to 100 nM	10 to 100 nM	1000 to 5000 nM	COc1cc(-n2cnc3cc(-c4cnn(C)c4)ccc32)cc(OC)c1C(=O)N[C@@H]1C[C@H]1CO [compound 156, N-[(1R,2R)-2-(hydroxymethyl)cyclopropyl]-2,6-dimethoxy-4-[5-(1-methylpyrazol-4-yl)benzimidazol-1-yl]benzamide]
10 to 100 nM	10 to 100 nM	10 to 100 nM	100 to 1000 nM	COc1cc(-n2cnc3cc(-c4cnn(C)c4)ccc32)cc(OC)c1C(=O)N[C@@H]1C[C@H]1C(F)F [compound 157]
10 to 100 nM	10 to 100 nM	10 to 100 nM	100 to 1000 nM	COc1cc(-n2cnc3cc(-c4cnn(C)c4)ccc32)cc(OC)c1C(=O)N[C@@H]1CC[C@H]1O [compound 159, N-[(1R,2R)-2-hydroxycyclobutyl]-2,6-dimethoxy-4-[5-(1-methylpyrazol-4-yl)benzimidazol-1-yl]benzamide]
10 to 100 nM	10 to 100 nM	10 to 100 nM	100 to 1000 nM	COc1cc(-n2cnc3cc(-c4cn(C)nn4)ccc32)cc(OC)c1C(=O)NCC(F)(F)F [compound 160, 2,6-dimethoxy-4-[5-(1-methyltriazol-4-yl)benzimidazol-1-yl]-N-(2,2,2-trifluoroethyl)benzamide]
10 to 100 nM	10 to 100 nM	10 to 100 nM	> 5000 nM	COc1cc(-n2cnc3cc(-c4cnn(C)c4)ccc32)cc(OC)c1C(=O)NCCN [compound 163, N-(2-aminoethyl)-2,6-dimethoxy-4-[5-(1-methylpyrazol-4-yl)benzimidazol-1-yl]benzamide]
10 to 100 nM	10 to 100 nM	10 to 100 nM	0.1 to 100 nM	COc1cc(-c2cnc3cc(-c4cnn(C)c4)ccn23)cc(OC)c1C(=O)NC(C)C [compound 171, N-isopropyl-2,6-dimethoxy-4-[7-(1-methylpyrazol-4-yl)imidazo[1,2-a]pyridin-3-yl]benzamide]
